Results from patent US20220133753A1, “COMPOSITIONS AND METHODS USEFUL FOR TREATING DISEASES CHARACTERIZED BY INSUFFICIENT PANTOTHENATE KINASE ACTIVITY” (Comet Therapeutics, Inc., priority 2016, published 2022).

How the values were obtained:
[1] = Stability of CoA in PBS, medium and fetal calf serum by HPLC; settings: formed from CoA in serum, time course of 6 hours
Procedure: HPLC sample preparation protocol for total CoA and 4′-phosphopantetheine measurement: Samples were briefly washed with ice-cold PBS solution. Samples were sonicated thoroughly in 100 μl ice-cold PBS and centrifuged for 10-15 min at 4° C. to collect supernatant. Tris(2-carboxyethyl)phosphine hydrochloride (Sigma) (50 mM; 10 ul) was added to 50 μl sample supernatant and were incubated at room temperature for 15 min after vortex-mixing. Saturated ammonium sulfate solution or Millipore 3KD centrifugal filter units were used to remove proteins. The samples were centrifuged at 14,000 rpm for 15 min at 4° C. The clear supernatant (50 ul) or the filtrate was derivatized with 45 ul of ammonium 7-flurobenzo-2-oxa-1,3-doazole-4-sulfonate (SBD-F, Sigma) (1 mg/ml in borax buffer—0.1M containing 1 mM EDTA disodium, pH 9.5), and 5 ul ammonia solution (12.5% v/v, Merck Millipore) at 60° C. for 1 h. The derivatized samples were placed in a refrigerated autosampler (10° C.) in the Shimadzu HPLC system, and injected for total CoA and PPanSH analysis using optimized chromatographic separation conditions combined with fluorescence detection (described below).
Chromatography separation condition: Chromatographic analysis was performed with a Shimadzu LC-10AC liquid chromatograph, SCL-10A system controller, SIL-10AC automatic sample injector and LC-10AT solvent delivery system. Shimadzu RF-20Axs fluorescence detector was used for derivatized sample extract analysis. The fluorescence detector was set at excitation and emission wavelengths of 385 nm and 515 nm, respectively. Signal output was collected digitally with Shimadzu Labsolution software and post run analysis was performed. […] The two mobile phases consisted of A: 100 mM ammonium acetate buffer (pH 4.5) and B: acetonitrile. Flow rate was maintained at 0.8 ml/min with a slow gradient elution: 0% B till 7 min, 20% B at 20 min, 20% B at 22 min, 50% B at 23 min, maintained at 50% B till 27 min, 0% B at 28 min and 7-10 min for column re-equilibration.
The stability of CoA in PBS, serum-free medium, medium containing fetal calf (FCS) serum and in fetal calf serum was measured.

Drosophila S2 cells = experiment: HoPan treatment of Drosophila S2 cells in combination with CoA or 4′-phosphopantetheine; format: cell-based
Procedure: HoPan treatment of Drosophila S2 Cell in combination with CoA or 4′-phosphopantetheine treatment: Drosophila Schneider's S2 cells were maintained at standard conditions as explained above. Cells in the exponential phase of growth were used for all the experiments. Different indicated concentrations of CoA or 4′-phosphopantetheine (deuterium labelled PPanSH(D4) or unlabeled PPanSH) were added to S2 cells either in the presence or absence of 0.5 mM HoPan (Zhou Fang Pharm Chemical, China) for 48 h. Similarly, Drosophila S2 cells were treated with different concentrations of PPanSH(D4) at either 25° C. or 4° C. and cells were then harvested at various time points to access transport of PPanSH(D4). Stable isotope labelled PPanSH containing 4 deuterium atoms was purchased from Syncom (Groningen, The Netherlands) as a sodium salt (chemical structure is provided in FIG. 13A). As a read out cell count, intracellular total CoA and PPanSH levels (both labelled and unlabeled levels wherever appropriate) and histone acetylation levels were analyzed as explained below.
(§1) Drosophila S2 Cell Immunofluorescence Staining: For immunofluorescence Drosophila S2 cells were seeded on Poly-L-Lysine coated (Sigma-Aldrich) glass microscope slides and allowed to settle for 45 min. Cells were fixed with 3.7% formaldehyde (Sigma Aldrich) for 20 min, washed briefly with PBS+0.1% Triton-X-100 (Sigma Aldrich) and permeabilized with PBS+0.2% Triton-X-100 for 20 min. The slides were incubated in primary antibody (rabbit anti-AcLys, Cell Signaling Cat No: 9441, 1:500) to visualize histone acetylation levels in PBS+0.1% Triton-X-100 overnight and after an additional washing step in PBS+0.1% Triton-X-100 they were incubated in secondary goat anti-rabbit-Alexa488 antibody (Molecular Probes) for two hours at room temperature (RT). F-actin was detected with Rhodamin-Phalloidin (20 U/ml)(Invitrogen) and DNA by staining with DAPI (0.2 ug/ml) (Thermo Scientific). Finally the samples were mounted in 80% glycerol and analyzed using a Leica fluorescence microscope with Leica software. Adobe Photoshop and Illustrator (Adobe Systems Incorporated, San Jose, Calif., USA) were used for image assembly.

HEK293 cells = experiment: HoPan treatment of mammalian HEK293 cells in combination with CoA or 4′-phosphopantetheine; format: cell-based, human
Procedure: HoPan treatment of mammalian HEK293 Cells in combination with CoA and 4′-phosphopantetheine treatment: HEK293 cells were maintained in dMEM (Invitrogen) supplemented with 10% fetal calf serum (Gibco) and antibiotics (penicillin/streptomycin, Invitrogen). For HoPan treatment, cells were cultured in custom made dMEM without vitamin B5 (Thermo Scientific) supplemented with dialyzed FCS (Thermo Scientific). CoA or PPanSH was added to HEK293 cells for the final concentration of 25 uM, either in the presence or absence of HoPan (0.5 mM) for 4 days, followed by analysis for phenotype and rescue efficiency of CoA and PPanSH.
Western blot analysis and Antibodies: For Western blot analysis, cells were collected and washed with phosphate buffer saline (PBS), followed by centrifugation. The cells were lysed and sonicated in 1X Laemmli Sample Buffer and boiled for 5 min with 5% β-mercaptoethanol (Sigma). Protein content was determined using DC protein assay (BioRad). Equal amounts of protein were loaded on a 10 or 12.5% SDS-PAGE gel, transferred onto PVDF membranes and blocked with 5% milk in PBS/0.1% Tween, followed by overnight incubation with primary antibodies. The primary antibodies used were: rabbit-anti dPANK/fbl, 1:4000 Eurogentec custom made as described previously5, mouse anti-tubulin (Sigma Aldrich Cat no: T5168, 1:5000), anti-acetyl-Histone3 (Active Motif Cat no: 39139, 1:2000), anti GAPDH (Fitzgerald Cat no: 10R-G109a, 1:10000), rabbit anti COASY (Abcam Cat no: AB129012, 1:1000). Appropriate HRP-conjugated secondary antibodies (Amersham) were used and detection was performed using enhanced chemi-luminescence (Pierce cat nog: 32106) and Amersham hyperfilm (GE Healthcare). Band intensities were quantified with Image-studio software.

[2] = tested on: dPANK/fbl RNAi treated Drosophila S2 cells; experiment: dPANK/fbl RNA interference in Drosophila S2 cells, rescue by CoA or 4′-phosphopantetheine; format: cell-based; settings: compound added to the medium; for histone (protein) acetylation of dPANK/fbl RNAi treated S2 cells: immunofluorescence
Procedure: Drosophila S2 Cell Culture, RNA Interference, and CoA and 4′-phosphopantetheine treatment: Drosophila Schneider's S2 cells were maintained at 25° C. in Schneider's Drosophila medium (Invitrogen) supplemented with 10% heat inactivated fetal calf serum (Gibco) and antibiotics (penicillin/streptomycin, Invitrogen) under laboratory conditions. Synthesis of RNAi constructs and RNA interference (dsRNA) treatment was carried out as described previously (Siudeja K et al, EMBO Mol Med 3, 755-766 (2011)). Non-relevant (human gene; hMAZ) dsRNA was used as control. The cells were incubated for 4 days to induce an efficient knock-down. Cells were then subcultured, with or without CoA (Sigma-Aldrich, Cat. No: C4780—which is used for all the experiments wherever stated below) or 4′-phosphopantetheine (PPanSH) at different concentrations and were maintained for additional 3 days until analysis for rescue efficiency of the compounds was performed. The stock solutions of compounds were made in sterile water and stored in −20° C. until use.
as §1

[3] = tested on: Drosophila w1118 control fly line; experiment: Drosophila HoPan toxicity and CoA rescue experiment (eclosion); format: in vivo; settings: HoPan in the food during development
From the text: Drosophila HoPan Toxicity and CoA Rescue Experiment: One week old w1118 flies (in the ratio 10 females and 5 males) were kept in vials containing standard fly food with or without HoPan and CoA at indicated concentrations. The flies were allowed to lay eggs for 2 days, after which the adults were discarded. The resulting offspring were allowed to develop. The numbers of flies which eclosed were counted to evaluate HoPan toxicity and CoA rescue efficiency.

[4] = tested on: MCAD patient fibroblast cell lines; experiment: Mitochondrial stress test (Seahorse), reserve capacity of MCAD patient fibroblasts; format: cell-based, human
From the text: Medium-chain acyl-CoA dehydrogenase (MCAD) deficiency is a condition in which the body's capacity to break down fats with medium chain lengths is impaired, caused by mutations in the ACADM gene, which can lead to hypoglycaemia, and liver dysfunction. Left untreated, it can lead to seizures, coma and other serious health problems, with acute symptoms often preceded by extended periods of fasting or an infection with vomiting. Impaired metabolism were observed through functional measurements of respiration using a Seahorse XF Analyzer, where oxygen consumption rate (OCR) reflects oxidative respiration.
A study was performed to test the Rescue potential of S-acetyl-4′-phosphopantetheine in primary patient fibroblast model of MCAD deficiency. MCAD patient fibroblast cell lines (genotyped as containing homozygous K304E mutations in ACADM) were subject to a mitochondrial stress test according to standard protocol with a cell seeding density of 30 k cells/well (n=2). Rescue potential was assessed by increase in reserve capacity: defined as the difference between basal and maximal OCR, controlled by subtracting values for non-mitochondiral respiration (after rotenone treatment). The study was performed in two replicates.

[5] = tested on: primary human fibroblasts from healthy controls, MCAD deficiency and PA deficiency patients; experiment: Mitochondrial stress test (Seahorse), basal OCR of primary fibroblasts; format: cell-based
From the text: A study was thus performed to test the ability of S-acetyl-(S)-4′-phosphopantetheine to facilitate increased basal oxidative respiration in primary fibroblast cultures from patients diagnosed with MCAD deficiency and PA deficiency. Impaired metabolism were observed through functional measurements of respiration using a Seahorse XF Analyzer, where oxygen consumption rate (OCR) reflects oxidative respiration.
Patient derived cell lines were subject to a mitochondrial stress test according to standard protocol with a cell seeding density of 30 k cells/well (n=2) in glucose free media. After incubation with various concentrations of S-acetyl-4′-phosphopantetheine or vehicle for 24 h, rescue potential was assessed by increase in basal OCR (average of six readings between 30-70 min), relative to control: basal OCR from vehicle treatment was set to 1.0. […] Experiment was performed in two replicates: systematically outlying values caused by seeding errors, port failures, or values within background were excluded from analysis.

[6] = tested on: CG34404 down-regulated drosophila; format: in vivo
From the text: (§2) The drosophila gene CG34404 is considered to be a good ortholog of both MCCC1 and MCCC2, as determined by Fly DIOPT (DRSC Integrative Ortholog Prediction Tool). RNAi approaches are an established method of modelling various diseases, and the KK stock library at the Vienna Drosophila Resource Centre (VDRC) contains a knock-down strain for CG34404 (VDRC ID 103335). Down-regulation of CG34404 by RNAi, causes developmental delay.
Five virgin females from UAS-KK 103335 (RNAi knock-down of CG34404) and ten virgin males from Act5C-GAL4 (heterozygous RNAi expression driver line with CyO balancer) were crossed, and allowed to lay for a period of 24 h in vials containing drosophila media with and without S-acetyl-4′-phosphopantetheine. Rescue potential was assessed by the number of eclosed male mutant or control flies every 6 h, as a percentage of total eclosed flies of each genotype, expressed as the AAUC (calculated by trapezium rule) of the cumulative eclosion relative to the control strain, as shown in FIG. 22A. Further, the region of relative AUCs are plotted in FIG. 22B under treatment conditions.

[7] = tested on: RNAi knock-down of CG7461 drosophila; experiment: Drosophila model of VLCAD deficiency, survival in starvation; format: in vivo; settings: 5 mM, fed for 24 h
From the text: as §2, with “CG7461” for “CG34404”, “ACADVL,” for “both MCCC1 and MCCC2,”, “GD” for “KK”, “28028).” for “103335).”, “results in reduced viability when metabolically challenged with starvation.” for “causes developmental delay.”
Five virgin females from Act5C-GAL4 (RNAi expression driver line) and ten virgin males from UAS-GD 28028 (RNAi knock-down of CG7461) were crossed, to generate mutant progeny. In a similar manner, control flies were generated for the RNAi driver line (Gal4 control: Act5C-GAL4×GD 60000) and the upstream activating sequence (UAS control: UAS-GD 28028×Iso 31). From their offspring, 3-day old adult flies were allowed to feed for 24 h on glucose with and without 5 mM (S)-acetyl-4′-phosphopantetheine, then incubated on 2% agar medium without media. Dead flies were counted every 6 hours (up 90 hours) to obtain % survival over time. Rescue potential was assessed by the ability to survive in starvation conditions, expressed as the area under the curve (calculated by trapezium rule) of the cumulative frequency, relative to each control strain.

[8] = HoPan treated S2 cells, compound added to the medium
[9] = HoPan treated HEK293 cells, compound added to the medium

Question: For `CC(C)(COP(=O)(O)O)[C@@H](O)C(=O)NCCC(=O)NCCS` [4′-phosphopantetheine], which “stability of 4′-phosphopantetheine in serum” value [1] is on record?
Answer: Its value is “stable”.

Question: What about the “rescue of HoPan-induced decrease in cell count” value (Drosophila S2 cells; [8]) of the same compound?
Answer: Its value is “rescued”.

Question: What about the “rescue of HoPan-induced histone acetylation defect” value (Drosophila S2 cells; [8]) of the same compound?
Answer: Its value is “rescued the histone acetylation defect”.

Question: What about the “rescue of HoPan-induced histone acetylation defect” value (Drosophila S2 cells; HoPan treated S2 cells, compound added to the medium, listed as PpanSH) of the same compound?
Answer: Its value is “rescues acetylation defects”.

Question: And the “intracellular levels of 4′-phosphopantetheine” value (Drosophila S2 cells; HoPan treated S2 cells, external supplementation, HPLC)?
Answer: Its value is “significantly increased”.

Question: What about the “rescue of HoPan-induced impaired histone acetylation” value (HEK293 cells; [9]) of the same compound?
Answer: Its value is “rescued”.

Question: And the “rescue of HoPan-induced reduction in cell count” value (HEK293 cells; [9])?
Answer: The value was “rescued”.

Question: What about the “intracellular CoA level” value (HEK293 cells; HoPan treated HEK293 cells, compound added to the medium, HPLC) of the same compound?
Answer: Its value is “rescued”.

Question: And the “cell count of dPANK/fbl RNAi treated S2 cells” value [2]?
Answer: Its value is “rescued”.

Question: What about the “histone (protein) acetylation of dPANK/fbl RNAi treated S2 cells” value [2] of the same compound?
Answer: Its value is “rescued the histone acetylation defect”.

Question: What about the “histone (protein) acetylation of dPANK/fbl RNAi treated S2 cells” value ([2]; listed as PpanSH) of the same compound?
Answer: The value was “rescues acetylation defects”.

Question: Which “cell count of S2 cells” value (Drosophila S2 cells; HoPan alone) does the source give for `CC(C)(CO)[C@@H](O)C(=O)NCCCC(=O)O` [HoPan, Hopantenate] here?
Answer: The value was “induced a decrease in cell count”.

Question: And the “histone acetylation levels of S2 cells” value (Drosophila S2 cells; HoPan alone)?
Answer: Its value is “induced a decrease”.

Question: And the “intracellular CoA levels” value (Drosophila S2 cells; S2 cells, HoPan alone, HPLC)?
Answer: The value was “significantly reduced”.

Question: And the “intracellular levels of 4′-phosphopantetheine” value (Drosophila S2 cells; S2 cells, HoPan alone, HPLC)?
Answer: The value was “reduced levels of 4′-phosphopantetheine”.

Question: What about the eclosion rate [3] of the same compound?
Answer: Its eclosion rate is “decreased”.

Question: What about the larval lethality [3] of the same compound?
Answer: Its larval lethality is “larval lethality was induced”.

Question: And the “intracellular CoA levels” value (HEK293 cells; HEK293 cells, HoPan alone, HPLC)?
Answer: Its value is “significantly reduced”.

Question: And the “cell count of HEK293 cells” value (HEK293 cells; HoPan alone)?
Answer: The value was “decreased cell count”.

Question: And the “histone acetylation of HEK293 cells” value (HEK293 cells; HoPan alone)?
Answer: Its value is “impaired histone acetylation”.

Question: Which “cell line response to positive control” value ([4]; all cell lines, data not shown) does the source give for `C=C(C)[C@H]1Cc2c(ccc3c2O[C@@H]2COc4cc(OC)c(OC)cc4[C@@H]2C3=O)O1` [Rotenone] here?
Answer: The value was “generated expected profiles of ETC inhibition”.

Question: What about the “cell line response to positive control” value ([5]; data not shown) of the same compound?
Answer: Its value is “generated expected profiles”.

Question: What does the source list for S-acetyl-4′-phosphopantetheine?
Answer: spare respiratory capacity (reserve capacity) ([4]; MCAD fibroblasts, relative to vehicle treated control): improved spare respiratory capacity; reduction of the observed developmental delay ([6]; 2 mM in drosophila media): 27 cumulative fly days; toxicity in drosophila ([6]; in vivo): some toxicity; ability to survive starvation relative to control flies (AUC of cumulative survival) [7]: partially recovered towards control levels; ability to survive starvation relative to control flies (AUC of cumulative survival) ([7]; listed as (S)-acetyl-4′-phosphopantetheine): partially recovered; effect on basal OCR in patient fibroblasts compared with healthy controls ([5]; MCAD and PA patient fibroblasts, 24 h treatment): observed more strongly; basal OCR levels ([5]; primary fibroblasts, 24 h treatment, relative to vehicle controls): consistently elevated
